Reference: publication PMC12250965, “Design and Synthesis of Sulfonium and Selenonium Derivatives Bearing 3′,5′-O-Benzylidene Acetal Side Chain Structure as Potent α-Glucosidase Inhibitors” (Molecules, 2025)
Like-named read-outs stand apart in the source and are kept apart here.

Assays:
rat intestinal maltase [1] = conditions: literature value ^[a]; read-out: IC50 against maltase (converted); cited from earlier work
maltose-loaded mice = experiment: Maltose loading test (hypoglycemic effect); format: in vivo, ICR mice; conditions: maltose loading 2.0 g/kg, 1.0 mpk, 1 mg/kg
Protocol: A maltose loading test on compounds 10, 20c, neoponkoranol, and positive control (voglibose) was conducted to further evaluate their in vivo hypoglycemic effects against maltase.
The animal experimental protocols in this study were approved by the Experimental Animal Center of Shanghai Institute of Materia Medica (Shanghai, China). Male ICR (Institute of Cancer Research) mice (29−33 g) after an overnight fast were used for acute maltose and sucrose loading tests. […] A control group was loaded with distillation−distillation water. In the sucrose loading test, sucrose (2.5 g/kg of body weight) and the inhibitor miglitol were dissolved in distillation−distillation water and administered to the mice via a stomach tube. A control group was loaded with distillation−distillation water. Blood samples for glucose measurements were obtained from the tail vein at 0, 15, 30, 60, and 120 min after maltose and sucrose loading. The blood glucose levels were measured by a portable kit, StatStrip Xpress (Nova Biomedical Co., Ltd., Waltham, MA, USA). The AUC over was calculated by the trapezoidal method.

sucrose-loaded mice = experiment: Sucrose loading test (hypoglycemic effect); format: in vivo, ICR mice; conditions: sucrose loading […] p.o.
Protocol: Research has shown a strong association between the 2 h postprandial blood glucose level and the risk of cardiovascular events, diabetic microvascular complications such as retinopathy, and the progression of macrovascular diseases. […] Considering this underlying pathological process, α-glucosidase inhibitors, which efficiently regulate postprandial glucose fluctuations, hold significant therapeutic promise for alleviating diabetes-related complications. […] Subsequently, doses were reduced to 1.0 mg/kg.
The animal experimental protocols in this study were approved by the Experimental Animal Center of Shanghai Institute of Materia Medica (Shanghai, China). Male ICR (Institute of Cancer Research) mice (29−33 g) after an overnight fast were used for acute maltose and sucrose loading tests. In the maltose loading test, maltose ([…] of body weight) and the inhibitors and voglibose were dissolved in distillation−distillation water and administered to the mice via a stomach tube. A control group was loaded with distillation−distillation water. In the sucrose loading test, sucrose (2.5 g/kg of body weight) and the inhibitor miglitol were dissolved in distillation−distillation water and administered to the mice via a stomach tube. A control group was loaded with distillation−distillation water. Blood samples for glucose measurements were obtained from the tail vein at 0, 15, 30, 60, and 120 min after maltose and sucrose loading. The blood glucose levels were measured by a portable kit, StatStrip Xpress (Nova Biomedical Co., Ltd., Waltham, MA, USA). The AUC over was calculated by the trapezoidal method.

rat intestinal sucrase [2] = biological target: T1, rat intestinal sucrase (Rattus norvegicus, UniProt P23739); conditions: literature value ^[a]; read-out: IC50 against sucrase (converted); cited from earlier work
T1 construct: rat small intestinal brush border membrane vesicles were first prepared; from tissue; host or cells: rat small intestine, brush border membrane vesicles
T1 sequence (P23739 whole entry): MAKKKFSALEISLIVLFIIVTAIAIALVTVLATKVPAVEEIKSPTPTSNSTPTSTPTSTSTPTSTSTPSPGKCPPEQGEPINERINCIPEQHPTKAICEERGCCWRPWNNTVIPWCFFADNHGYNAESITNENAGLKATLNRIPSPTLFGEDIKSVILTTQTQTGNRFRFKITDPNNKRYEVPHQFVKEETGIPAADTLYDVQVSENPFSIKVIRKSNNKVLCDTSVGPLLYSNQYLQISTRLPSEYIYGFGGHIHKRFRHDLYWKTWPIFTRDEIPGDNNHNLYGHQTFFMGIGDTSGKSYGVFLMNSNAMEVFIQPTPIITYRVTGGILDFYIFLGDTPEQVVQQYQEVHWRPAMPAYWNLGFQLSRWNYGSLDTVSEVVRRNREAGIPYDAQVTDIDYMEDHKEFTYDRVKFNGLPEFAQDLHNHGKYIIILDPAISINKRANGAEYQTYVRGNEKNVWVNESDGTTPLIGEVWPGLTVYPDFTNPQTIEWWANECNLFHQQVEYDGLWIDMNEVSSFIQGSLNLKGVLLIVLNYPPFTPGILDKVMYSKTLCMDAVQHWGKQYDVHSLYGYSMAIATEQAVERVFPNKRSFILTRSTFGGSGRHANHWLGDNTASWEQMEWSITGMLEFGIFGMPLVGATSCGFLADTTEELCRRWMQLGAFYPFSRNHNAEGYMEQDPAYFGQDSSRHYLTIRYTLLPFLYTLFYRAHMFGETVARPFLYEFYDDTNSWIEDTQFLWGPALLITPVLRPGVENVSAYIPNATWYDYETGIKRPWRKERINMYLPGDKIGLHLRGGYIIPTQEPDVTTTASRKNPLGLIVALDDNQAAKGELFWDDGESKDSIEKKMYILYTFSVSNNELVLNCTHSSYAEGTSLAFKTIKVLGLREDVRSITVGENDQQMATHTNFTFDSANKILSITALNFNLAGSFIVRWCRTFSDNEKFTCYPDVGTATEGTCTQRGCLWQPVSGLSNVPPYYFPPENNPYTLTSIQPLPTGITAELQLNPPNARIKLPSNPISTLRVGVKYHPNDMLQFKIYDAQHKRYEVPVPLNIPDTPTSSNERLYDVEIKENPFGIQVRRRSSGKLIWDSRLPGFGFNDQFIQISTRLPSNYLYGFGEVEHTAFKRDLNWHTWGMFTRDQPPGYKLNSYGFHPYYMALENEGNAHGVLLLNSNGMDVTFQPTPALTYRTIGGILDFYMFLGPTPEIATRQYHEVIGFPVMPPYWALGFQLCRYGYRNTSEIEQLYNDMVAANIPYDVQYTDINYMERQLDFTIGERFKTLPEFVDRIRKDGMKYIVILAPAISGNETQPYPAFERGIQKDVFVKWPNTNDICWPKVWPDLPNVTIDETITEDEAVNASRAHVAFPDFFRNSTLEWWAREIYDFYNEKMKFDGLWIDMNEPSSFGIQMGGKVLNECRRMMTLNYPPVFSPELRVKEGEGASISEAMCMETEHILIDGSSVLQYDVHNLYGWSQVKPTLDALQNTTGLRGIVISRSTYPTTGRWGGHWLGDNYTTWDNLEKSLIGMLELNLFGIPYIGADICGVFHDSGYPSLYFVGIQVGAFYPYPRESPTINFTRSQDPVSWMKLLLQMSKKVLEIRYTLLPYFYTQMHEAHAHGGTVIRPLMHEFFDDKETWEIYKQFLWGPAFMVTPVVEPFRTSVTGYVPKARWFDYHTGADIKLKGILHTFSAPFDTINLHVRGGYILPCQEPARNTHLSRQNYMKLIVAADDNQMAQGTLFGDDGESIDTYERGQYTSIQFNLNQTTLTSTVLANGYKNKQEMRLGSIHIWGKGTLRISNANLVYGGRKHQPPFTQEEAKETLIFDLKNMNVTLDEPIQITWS

rat intestinal maltase [3] = experiment: In vitro α-glucosidase inhibition assay, rat intestinal maltase; format: biochemical; conditions: rat small intestinal brush border membrane vesicles; maltose substrate; mean ± SD (n = 3); read-out: IC50 against maltase
rat intestinal sucrase [4] = biological target: T1, rat intestinal sucrase; experiment: In vitro α-glucosidase inhibition assay, rat intestinal sucrase; format: biochemical; conditions: rat small intestinal brush border membrane vesicles; sucrose substrate; mean ± SD (n = 3); read-out: IC50 against sucrase

- IC50 (rat intestinal maltase [3]): 7.3 ± 1.5 µM
- IC50 (rat intestinal sucrase [4]): 2.8 ± 0.5 µM
Structure (SMILES): OC[C@@H]1[C@@H](O)[C@H](O)C[S@@+]1C[C@@H](O)[C@@H](O)[C@H](O)[C@@H](O)CO [neoponkoranol]
- IC50 (rat intestinal maltase [1]): 6.9 µM
- Declined Rate of Blood Glucose Levels, 15 min (maltose-loaded mice; 15 min): 42.3%
- Declined Rate of Blood Glucose Levels, 30 min (maltose-loaded mice; 30 min): 33.9%
- Declined Rate of Blood Glucose Levels, 60 min (maltose-loaded mice; 60 min): 19.4%
- Declined Rate of AUC (maltose-loaded mice; AUC): 21.5%
- Declined Rate of Blood Glucose Levels, 15 min (sucrose-loaded mice; 1.0 mpk): 33.5%
- Declined Rate of Blood Glucose Levels, 30 min (sucrose-loaded mice; 1.0 mpk): 36.4%
- Declined Rate of Blood Glucose Levels, 60 min (sucrose-loaded mice; 1.0 mpk): 27.1%
- Declined Rate of AUC (sucrose-loaded mice; 1.0 mpk): 27.1%
- Declined Rate of Blood Glucose Levels, 15 min (sucrose-loaded mice; 10.0 mpk): 42.8%
- Declined Rate of Blood Glucose Levels, 30 min (sucrose-loaded mice; 10.0 mpk): 49.5%
- Declined Rate of Blood Glucose Levels, 60 min (sucrose-loaded mice; 10.0 mpk): 43.5%
- Declined Rate of AUC (sucrose-loaded mice; 10.0 mpk): 39.4%
- IC50 (rat intestinal sucrase [2]): 2.3 µM
